PMC6557688 (FEBS letters, 2019)

Target: recombinant Nudt7 (Mus musculus, UniProt Q99P30)
Assay: CoA diphosphohydrolase assay, protein curves
Assay type: biochemical
Settings: MgCl2 or MnCl2

Chain of recombinant Nudt7 (Q99P30 whole entry): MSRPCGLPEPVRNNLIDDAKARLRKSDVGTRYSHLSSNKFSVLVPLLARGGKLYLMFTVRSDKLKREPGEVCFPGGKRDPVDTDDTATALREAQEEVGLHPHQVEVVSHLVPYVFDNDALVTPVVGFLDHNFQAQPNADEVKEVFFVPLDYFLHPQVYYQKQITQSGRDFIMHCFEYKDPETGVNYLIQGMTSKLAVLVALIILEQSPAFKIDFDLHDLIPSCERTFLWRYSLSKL

## CC(C)(COP(=O)(O)OP(=O)(O)OC[C@H]1O[C@@H](n2cnc3c(N)ncnc32)[C@H](O)[C@@H]1OP(=O)(O)O)[C@@H](O)C(=O)NCCC(=O)NCCS [Free CoA]
  CoA diphosphohydrolase assay, protein curves: the specific activity of Nudt8 against free CoA was comparable to that of Nudt7
